For this data set the following is noted: DTA; for Triple point temperature: Crystal 2; for Normal melting temperature: Crystal.

Each structure is given as a SMILES string. ± gives the expanded uncertainty stated by the source.

These results are taken from the NIST ThermoML archive (doi:10.1021/je900902z).

On to `O=S(=O)([N-]S(=O)(=O)C(F)(F)C(F)(F)F)C(F)(F)C(F)(F)F.[Cs+]` [cesium bis((perfluoroethyl)sulfonyl)amide], for which the Triple point temperature is recorded as 369 ± 2 K and the Normal melting temperature is 253 ± 2 °C.
With `O=S(=O)([N-]S(=O)(=O)C(F)(F)C(F)(F)F)C(F)(F)C(F)(F)F.[Li+]` [lithium bis(pentafluoroethylsulfonyl)amide], the Triple point temperature was 485 ± 2 K and the Normal melting temperature was 328 ± 2 °C.
With `O=S(=O)([N-]S(=O)(=O)C(F)(F)C(F)(F)F)C(F)(F)C(F)(F)F.[Rb+]` [rubidium bis((perfluoroethyl)sulfonyl)amide], the Triple point temperature is recorded as 419 ± 2 K and the Normal melting temperature was 266 ± 2 °C.
Regarding `O=S(=O)([N-]S(=O)(=O)C(F)(F)C(F)(F)F)C(F)(F)C(F)(F)F.[K+]` [potassium bis(pentafluoroethylsulfonyl) amide], the Triple point temperature was 427 ± 2 K and the Normal melting temperature came to 273 ± 2 °C.
For `O=S(=O)([N-]S(=O)(=O)C(F)(F)C(F)(F)F)C(F)(F)C(F)(F)F.[Na+]` [sodium bis(pentafluoroethylsulfonyl)amide], in that order: 454 ± 2 K and 266 ± 2 °C.
